Test results reported in PubChem BioAssay (NCI).
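These data come from cells grown in 96-well plates and exposed to compound for 48 hours at five concentrations. TGI: total growth inhibition.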

Assays:
Experiment in all cases: inhibition of tumour cell growth, NCI panel, 48 h
IGROV1 ovarian = system: IGROV1 ovarian
SN12C renal = system: SN12C renal
HT29 colon = system: HT29 colon
LOX IMVI melanoma = system: LOX IMVI melanoma
786-0 renal = system: 786-0 renal
MDA-N = system: MDA-N
EKVX NSCLC = system: EKVX NSCLC
NCI-H226 lung = system: NCI-H226 lung
SF-268 CNS = system: SF-268 CNS
SK-MEL-28 melanoma = system: SK-MEL-28 melanoma
HCC-2998 colon = system: HCC-2998 colon
OVCAR-8 ovarian = system: OVCAR-8 ovarian
MOLT-4 leukemia = system: MOLT-4 leukemia
NCI/ADR-RES ovarian = system: NCI/ADR-RES ovarian
CAKI-1 renal = system: CAKI-1 renal
UACC-62 melanoma = system: UACC-62 melanoma
RPMI-8226 leukemia = system: RPMI-8226 leukemia
T-47D breast = system: T-47D breast
U251 CNS = system: U251 CNS
SK-MEL-5 melanoma = system: SK-MEL-5 melanoma
SK-OV-3 ovarian = system: SK-OV-3 ovarian
NCI-H522 lung = system: NCI-H522 lung
OVCAR-4 ovarian = system: OVCAR-4 ovarian
SNB-75 CNS = system: SNB-75 CNS
SW-620 colon = system: SW-620 colon
BT-549 breast = system: BT-549 breast
HCT-15 colon = system: HCT-15 colon
COLO 205 colon = system: COLO 205 colon
HCT-116 colon = system: HCT-116 colon
HS 578T breast = system: HS 578T breast
HOP-92 NSCLC = system: HOP-92 NSCLC
UACC-257 melanoma = system: UACC-257 melanoma
A498 renal = system: A498 renal
DU-145 prostate = system: DU-145 prostate
OVCAR-3 ovarian = system: OVCAR-3 ovarian
ACHN renal = system: ACHN renal
SNB-19 CNS = system: SNB-19 CNS
K-562 leukemia = system: K-562 leukemia
SR leukemia = system: SR leukemia
SF-539 CNS = system: SF-539 CNS
OVCAR-5 ovarian = system: OVCAR-5 ovarian
HOP-62 NSCLC = system: HOP-62 NSCLC
TK-10 renal = system: TK-10 renal
UO-31 renal = system: UO-31 renal
PC-3 prostate = system: PC-3 prostate
CCRF-CEM leukemia = system: CCRF-CEM leukemia
M14 melanoma = system: M14 melanoma
MALME-3M melanoma = system: MALME-3M melanoma
RXF 393 renal = system: RXF 393 renal
MCF7 breast = system: MCF7 breast
SK-MEL-2 melanoma = system: SK-MEL-2 melanoma
A549 NSCLC = system: A549 NSCLC
SF-295 CNS = system: SF-295 CNS
MDA-MB-435 = system: MDA-MB-435
HL-60(TB) leukemia = system: HL-60(TB) leukemia
NCI-H23 lung = system: NCI-H23 lung
NCI-H460 lung = system: NCI-H460 lung
KM12 colon = system: KM12 colon
MDA-MB-231 breast = system: MDA-MB-231 breast

Measured: TGI

CCOC(=O)/C(=C\NCc1ccc2c(c1)OCO2)c1nc2ccccc2[nH]1
60 µM: TK-10 renal
not listed: MDA-MB-231 breast
> 100 µM: all other assays above

CC(C)(C)c1cc(OCc2nnc3sc(-c4ccc(Cl)cc4)nn23)c(Cl)cc1OCc1nnc2sc(-c3ccc(Cl)cc3)nn12
15.2 µM: SF-539 CNS
40.7 µM: UACC-257 melanoma
3.46 µM: MDA-N
9.72 µM: HCC-2998 colon
8.73 µM: OVCAR-3 ovarian
97.9 µM: EKVX NSCLC
24.4 µM: ACHN renal
54.3 µM: NCI-H226 lung
21.8 µM: MALME-3M melanoma
83.6 µM: HT29 colon
31.3 µM: DU-145 prostate
35.6 µM: NCI/ADR-RES ovarian
14.9 µM: T-47D breast
51.4 µM: HOP-62 NSCLC
12.9 µM: NCI-H460 lung
3.47 µM: SK-MEL-5 melanoma
31.2 µM: MOLT-4 leukemia
12.5 µM: K-562 leukemia
19.8 µM: OVCAR-8 ovarian
88.9 µM: OVCAR-5 ovarian
36.8 µM: TK-10 renal
> 100 µM: SN12C renal | SF-268 CNS | HS 578T breast | PC-3 prostate
39.1 µM: UACC-62 melanoma
19.3 µM: RXF 393 renal
57.8 µM: OVCAR-4 ovarian
11.1 µM: KM12 colon
38.3 µM: MDA-MB-231 breast
38.8 µM: HCT-15 colon
87.6 µM: SNB-19 CNS
29.3 µM: COLO 205 colon
9.8 µM: SNB-75 CNS
28.7 µM: U251 CNS
18.2 µM: SF-295 CNS
16.5 µM: 786-0 renal
34.6 µM: BT-549 breast
20.4 µM: A549 NSCLC
27 µM: SK-OV-3 ovarian
54.2 µM: LOX IMVI melanoma
26.1 µM: A498 renal | UO-31 renal
10.9 µM: MCF7 breast
44.9 µM: SK-MEL-2 melanoma
23.6 µM: RPMI-8226 leukemia
16.3 µM: HOP-92 NSCLC
7.36 µM: HL-60(TB) leukemia
88.6 µM: M14 melanoma
29.9 µM: NCI-H522 lung
20.6 µM: NCI-H23 lung
26 µM: HCT-116 colon
21.4 µM: IGROV1 ovarian
2.91 µM: SR leukemia
32.9 µM: SW-620 colon
11.4 µM: CAKI-1 renal
33.3 µM: SK-MEL-28 melanoma

COc1cccc2c(Nc3ccc(S(=O)(=O)N=C(N)N)cc3)c3ccc([N+](=O)[O-])cc3nc12
36.5 µM: NCI-H522 lung
70.7 µM: SR leukemia
32.8 µM: UACC-62 melanoma
57 µM: LOX IMVI melanoma
46.7 µM: 786-0 renal
45.5 µM: SK-MEL-5 melanoma
56.1 µM: UACC-257 melanoma
18 µM: MDA-MB-231 breast
85.9 µM: T-47D breast
87.2 µM: HCC-2998 colon
46.1 µM: BT-549 breast
64.3 µM: HOP-62 NSCLC
61.1 µM: MDA-N
86.5 µM: RPMI-8226 leukemia
31.4 µM: IGROV1 ovarian | MALME-3M melanoma
44.9 µM: A498 renal
32.1 µM: CAKI-1 renal
37.6 µM: SK-MEL-2 melanoma
31.6 µM: CCRF-CEM leukemia
52.3 µM: NCI-H23 lung
44.7 µM: UO-31 renal
31.9 µM: ACHN renal
not listed: SNB-75 CNS | HS 578T breast | HL-60(TB) leukemia | KM12 colon
> 100 µM: all other assays above

CC1(C)CN=C(Nc2ccc(F)cc2)S1
not listed: A498 renal | NCI-H460 lung | MDA-MB-231 breast
> 100 µM: all other assays above

[N-]=[N+]=Nc1c(N2CCOCC2)c(Cl)nc2ccccc12
72.9 µM: HT29 colon
78.3 µM: UACC-257 melanoma
49.6 µM: SK-MEL-5 melanoma
88.6 µM: KM12 colon
not listed: UACC-62 melanoma | DU-145 prostate | MCF7 breast
> 100 µM: all other assays above
